In patent US11542247B2, “Bi-heteroaryl substitute 1,4-benzodiazepines and uses thereof for the treatment of cancer” (Janssen Pharmaceutica NV, priority 2015, dated 2023):

Columns and labels:
Experiment in all cases: Enzyme binding assay (KINOMEscan)
Details in all cases: DiscoveRx, pKd = -log Kd (M)
FGFR2 = FGFR2 (Homo sapiens (Human), UniProt P21802)
Method: (§1) Enzyme Binding Assays (KINOMEscan®)
(§2) Kinase enzyme binding affinities of compounds disclosed herein were determined using the KINOMEscan® technology performed by DiscoveRx Corporation, San Diego, Calif., USA (www.kinomescan.com). Table A2 reports the obtained pKd values, with Kd (M) being the inhibitor binding constant value and with pKd being −log Kd: […]

FGFR4 = FGFR4 (Homo sapiens (Human), UniProt P22455)
Sequence of FGFR4 (P22455 22-802): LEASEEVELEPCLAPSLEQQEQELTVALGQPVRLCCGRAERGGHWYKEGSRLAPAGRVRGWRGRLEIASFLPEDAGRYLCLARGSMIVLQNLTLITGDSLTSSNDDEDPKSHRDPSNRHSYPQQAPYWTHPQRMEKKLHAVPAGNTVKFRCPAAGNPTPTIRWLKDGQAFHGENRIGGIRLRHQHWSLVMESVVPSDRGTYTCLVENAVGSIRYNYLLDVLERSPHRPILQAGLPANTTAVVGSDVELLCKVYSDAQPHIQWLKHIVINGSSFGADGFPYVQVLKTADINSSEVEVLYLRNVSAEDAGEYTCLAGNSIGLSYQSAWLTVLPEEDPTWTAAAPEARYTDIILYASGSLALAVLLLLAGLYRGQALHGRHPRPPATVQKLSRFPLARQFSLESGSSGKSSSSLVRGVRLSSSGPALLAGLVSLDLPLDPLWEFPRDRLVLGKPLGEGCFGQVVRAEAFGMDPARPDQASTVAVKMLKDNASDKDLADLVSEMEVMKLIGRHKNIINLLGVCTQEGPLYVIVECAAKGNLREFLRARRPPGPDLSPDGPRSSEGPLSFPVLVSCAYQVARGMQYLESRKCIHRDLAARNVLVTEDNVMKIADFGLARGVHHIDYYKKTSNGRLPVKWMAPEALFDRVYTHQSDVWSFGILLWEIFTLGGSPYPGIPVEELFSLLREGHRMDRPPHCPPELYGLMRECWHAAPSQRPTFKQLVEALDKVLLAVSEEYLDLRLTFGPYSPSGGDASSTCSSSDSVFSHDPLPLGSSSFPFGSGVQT
Method: as §1, §2

VEGFR2 = VEGFR2 (Homo sapiens (Human), UniProt P35968)
Sequence of VEGFR2 (P35968 20-1356): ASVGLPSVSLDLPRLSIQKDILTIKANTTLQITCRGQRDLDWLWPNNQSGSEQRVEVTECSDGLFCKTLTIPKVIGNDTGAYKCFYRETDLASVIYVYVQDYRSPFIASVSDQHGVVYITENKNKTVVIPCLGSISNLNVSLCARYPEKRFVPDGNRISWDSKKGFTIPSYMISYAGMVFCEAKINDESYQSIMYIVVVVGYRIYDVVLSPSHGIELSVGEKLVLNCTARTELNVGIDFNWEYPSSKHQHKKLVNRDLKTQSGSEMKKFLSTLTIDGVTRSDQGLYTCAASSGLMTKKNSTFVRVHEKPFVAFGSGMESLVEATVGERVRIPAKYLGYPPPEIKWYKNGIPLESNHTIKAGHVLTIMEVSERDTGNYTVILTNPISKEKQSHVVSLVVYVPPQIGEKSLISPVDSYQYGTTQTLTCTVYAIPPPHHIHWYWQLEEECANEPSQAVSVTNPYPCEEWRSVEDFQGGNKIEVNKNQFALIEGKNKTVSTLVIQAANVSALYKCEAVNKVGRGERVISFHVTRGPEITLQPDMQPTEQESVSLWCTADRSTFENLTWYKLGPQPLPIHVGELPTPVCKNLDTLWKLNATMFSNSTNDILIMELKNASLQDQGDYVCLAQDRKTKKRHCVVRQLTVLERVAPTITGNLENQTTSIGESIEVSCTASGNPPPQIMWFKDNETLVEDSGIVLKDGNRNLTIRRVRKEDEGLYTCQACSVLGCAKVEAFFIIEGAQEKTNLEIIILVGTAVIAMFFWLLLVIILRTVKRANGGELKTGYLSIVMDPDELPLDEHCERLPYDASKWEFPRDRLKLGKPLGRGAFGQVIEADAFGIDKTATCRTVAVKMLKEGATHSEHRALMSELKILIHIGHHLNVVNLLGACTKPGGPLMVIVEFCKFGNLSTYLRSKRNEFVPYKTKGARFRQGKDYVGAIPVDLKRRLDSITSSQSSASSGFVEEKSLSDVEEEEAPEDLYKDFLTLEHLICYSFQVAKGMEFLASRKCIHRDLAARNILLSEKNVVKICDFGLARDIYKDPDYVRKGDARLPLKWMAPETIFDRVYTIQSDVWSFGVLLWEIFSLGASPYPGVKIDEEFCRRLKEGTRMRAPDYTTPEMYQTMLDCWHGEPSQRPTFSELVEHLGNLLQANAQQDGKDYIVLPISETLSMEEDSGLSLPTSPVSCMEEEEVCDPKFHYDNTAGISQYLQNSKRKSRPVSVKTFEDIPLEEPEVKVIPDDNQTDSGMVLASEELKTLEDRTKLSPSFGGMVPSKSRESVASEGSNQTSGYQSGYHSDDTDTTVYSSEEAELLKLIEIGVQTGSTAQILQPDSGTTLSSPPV
Method: as §1, §2

FGFR1 = FGFR1 (Homo sapiens (Human), UniProt P11362)
Sequence of FGFR1 (P11362 22-822): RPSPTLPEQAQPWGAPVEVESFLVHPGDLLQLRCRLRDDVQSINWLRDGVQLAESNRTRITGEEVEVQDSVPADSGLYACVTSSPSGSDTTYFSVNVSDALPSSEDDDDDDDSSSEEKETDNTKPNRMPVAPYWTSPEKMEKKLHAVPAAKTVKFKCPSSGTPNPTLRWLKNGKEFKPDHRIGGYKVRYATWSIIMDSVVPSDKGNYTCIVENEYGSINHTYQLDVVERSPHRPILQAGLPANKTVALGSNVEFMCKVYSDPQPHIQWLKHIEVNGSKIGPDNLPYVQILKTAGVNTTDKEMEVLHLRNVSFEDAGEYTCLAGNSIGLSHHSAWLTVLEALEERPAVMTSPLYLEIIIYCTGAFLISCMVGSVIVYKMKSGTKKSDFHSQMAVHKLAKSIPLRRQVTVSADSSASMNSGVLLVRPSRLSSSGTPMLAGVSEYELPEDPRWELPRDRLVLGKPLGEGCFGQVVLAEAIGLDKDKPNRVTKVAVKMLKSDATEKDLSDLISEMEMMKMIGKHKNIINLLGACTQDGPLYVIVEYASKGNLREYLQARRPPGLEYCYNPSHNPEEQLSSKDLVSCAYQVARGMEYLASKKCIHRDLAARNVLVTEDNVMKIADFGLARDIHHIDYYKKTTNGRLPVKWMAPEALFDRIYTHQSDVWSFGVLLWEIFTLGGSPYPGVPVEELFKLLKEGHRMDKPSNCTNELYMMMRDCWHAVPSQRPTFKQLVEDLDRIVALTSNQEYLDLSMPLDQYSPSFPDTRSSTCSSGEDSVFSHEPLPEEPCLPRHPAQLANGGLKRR
Method: as §1, §2

FGFR3 = FGFR3 (Homo sapiens (Human), UniProt P22607)
Sequence of FGFR3 (P22607 23-806): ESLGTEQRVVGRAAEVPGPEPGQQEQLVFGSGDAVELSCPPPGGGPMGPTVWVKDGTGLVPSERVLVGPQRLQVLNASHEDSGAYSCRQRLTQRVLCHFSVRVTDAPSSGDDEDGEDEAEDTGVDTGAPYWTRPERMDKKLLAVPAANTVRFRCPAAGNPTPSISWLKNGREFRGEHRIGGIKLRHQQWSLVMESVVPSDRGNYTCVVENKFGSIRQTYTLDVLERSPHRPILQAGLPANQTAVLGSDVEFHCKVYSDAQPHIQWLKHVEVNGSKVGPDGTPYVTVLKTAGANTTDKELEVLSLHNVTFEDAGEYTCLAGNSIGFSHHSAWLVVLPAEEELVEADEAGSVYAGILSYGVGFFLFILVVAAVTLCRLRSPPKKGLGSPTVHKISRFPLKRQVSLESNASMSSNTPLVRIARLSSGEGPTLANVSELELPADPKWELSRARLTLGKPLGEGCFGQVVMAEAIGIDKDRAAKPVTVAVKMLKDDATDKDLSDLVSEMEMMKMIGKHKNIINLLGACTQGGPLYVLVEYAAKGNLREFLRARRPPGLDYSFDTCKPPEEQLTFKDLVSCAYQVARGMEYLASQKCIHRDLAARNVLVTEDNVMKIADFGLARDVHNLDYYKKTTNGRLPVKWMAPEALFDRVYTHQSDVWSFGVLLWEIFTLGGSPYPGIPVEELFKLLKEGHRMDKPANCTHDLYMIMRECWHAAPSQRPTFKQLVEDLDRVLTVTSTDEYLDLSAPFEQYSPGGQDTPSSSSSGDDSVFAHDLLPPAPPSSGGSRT
Method: as §1, §2

Sequence of FGFR2 (P21802 22-821): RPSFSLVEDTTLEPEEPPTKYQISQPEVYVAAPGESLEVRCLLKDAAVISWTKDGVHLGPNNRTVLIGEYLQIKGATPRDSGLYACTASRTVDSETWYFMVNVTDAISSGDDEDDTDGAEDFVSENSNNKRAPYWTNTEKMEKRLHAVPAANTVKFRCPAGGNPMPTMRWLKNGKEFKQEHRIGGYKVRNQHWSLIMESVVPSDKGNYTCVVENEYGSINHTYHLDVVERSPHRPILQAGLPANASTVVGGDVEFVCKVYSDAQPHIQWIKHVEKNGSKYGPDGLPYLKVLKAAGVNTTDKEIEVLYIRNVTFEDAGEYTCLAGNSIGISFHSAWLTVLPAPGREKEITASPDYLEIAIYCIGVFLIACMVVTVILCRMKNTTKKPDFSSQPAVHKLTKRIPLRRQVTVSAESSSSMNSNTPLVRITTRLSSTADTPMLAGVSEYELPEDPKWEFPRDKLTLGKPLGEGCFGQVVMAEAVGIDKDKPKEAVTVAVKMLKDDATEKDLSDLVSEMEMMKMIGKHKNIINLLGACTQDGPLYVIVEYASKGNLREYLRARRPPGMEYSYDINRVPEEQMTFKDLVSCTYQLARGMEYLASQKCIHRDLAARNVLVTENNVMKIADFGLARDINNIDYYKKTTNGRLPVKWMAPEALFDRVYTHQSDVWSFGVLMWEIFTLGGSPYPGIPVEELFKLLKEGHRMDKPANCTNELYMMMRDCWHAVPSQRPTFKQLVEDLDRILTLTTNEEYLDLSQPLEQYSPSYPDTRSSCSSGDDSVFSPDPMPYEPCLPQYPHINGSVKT

| SMILES | Kd (FGFR2) [M] | Kd (FGFR4) [M] | Kd (VEGFR2) [M] | Kd (FGFR1) [M] | Kd (FGFR3) [M] |
| --- | --- | --- | --- | --- | --- |
| COc1cc(OC)c2c(c1)N(c1ccc3ncc(-c4cnn(C)c4)cc3c1)CCN(C(C)C)C2 [Compound 1] | 1.86e-06 | 2.45e-06 | > 3.02e-06 |  |  |
| COc1cc(OC)c2c(c1)N(c1ccc3ncc(-c4cnn(C)c4)cc3c1)CCN(C)C2 [Compound 2] | > 3.02e-06 | > 3.02e-06 | > 3.02e-06 |  |  |
| COc1cc(OC)c2c(c1)N(c1ccc3ncc(-c4cn[nH]c4)cc3c1)CCN(C(C)C)C2 [Compound 3] | 8.91e-07 | 1.38e-06 | > 3.02e-06 |  |  |
| COc1cc(O)cc2c1CN(C(C)C)CCN2c1ccc2ncc(-c3cnn(C)c3)cc2c1 [Compound 4] | > 3.02e-06 | > 3.02e-06 | > 3.02e-06 | > 3.02e-06 | > 3.02e-06 |
| COc1cc(O)c2c(c1)N(c1ccc3ncc(-c4cnn(C)c4)cc3c1)CCN(C(C)C)C2 [Compound 5] | > 3.02e-06 | > 3.02e-06 | > 3.02e-06 |  |  |
| CC(C)N1CCN(c2ccc3ncc(-c4cnn(C)c4)cc3c2)c2cc(O)cc(O)c2C1 [Compound 6] | > 3.02e-06 | > 3.02e-06 | > 3.02e-06 | > 3.02e-06 | > 3.02e-06 |
| COc1cc(OC)c2c(c1)N(c1ccc3ncc(-c4cnn(C)c4)nc3n1)CCN(C(C)C)C2 [Compound 7] | > 1e-06 | > 3.02e-06 | 2.69e-07 | > 3.02e-06 | > 3.02e-06 |
| COc1cc(OC)c2c(c1)N(c1ccc3ncc(-c4cnn(C)c4)cc3n1)CCN(C(C)C)C2 [Compound 9] | 9.33e-07 | 1.91e-07 | 1.05e-06 |  |  |
| COc1cc(OC)c2c(c1)N(c1ccc3ncn(-c4cnn(C)c4)c(=O)c3c1)CCN(C(C)C)C2 [Compound 11] | > 3.02e-06 | > 3.02e-06 | > 3.02e-06 | > 3.02e-06 | > 3.02e-06 |
| COc1cc(OC)c2c(c1F)N(c1ccc3ncn(-c4cnn(C)c4)c(=O)c3c1)CCN(C(C)C)C2 [Compound 12] | 1.86e-06 | > 3.02e-06 | > 3.02e-06 |  |  |
